system: HT-29 cells; assay: HT-29 necroptosis cell viability assay (TNF-α/SMAC mimetic/zVAD-FMK, CellTiter-Glo); assay type: cell-based; details: Homo sapiens, HT-29, HT-29 cells, necroptosis induced by TNF-α/SMAC mimetic/zVAD-FMK, CellTiter-Glo; read-out: Activity (IC50 class)
Procedure, shortened: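 HT-29 cells (~5,000/well, overnight) in FBS-free McCoy's 5A with TNF-α 10 ng/ml, SMAC mimetic 6 μM and zVAD-FMK 10 μM plus 10-point 1:3 compound titration, 20 h at 37°C. ATP measured by CellTiter-Glo luminescence; IC50 as geometric mean of duplicates.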

SMILES | IC50 [nM]
CN(C)c1ccccc1Oc1ccc(-n2nc(Cl)n(Cc3ccccc3)c2=O)cc1 [Example 677, 4-benzyl-5-chloro-2-(4-(2-(dimethylamino)phenoxy)phenyl)-2,4-dihydro-3H-1,2,4-triazol-3-one] | 100 to 1000
Nc1ccccc1Oc1ccc(-n2nc(Cl)n(Cc3ccccc3)c2=O)cc1 [Example 679, 2-(4-(2-aminophenoxy)phenyl)-4-benzyl-5-chloro-2,4-dihydro-3H-1,2,4-tirazol-3-one] | < 100
O=c1n(Cc2c(F)cccc2F)cnn1-c1ccc(Oc2cc(N3CC4(C3)CN(C3CC3)C4)ncc2F)c(F)c1 [Example 680, 2-(4-((2-(6-cyclopropyl-2,6-diazaspiro[3.3]heptan-2-yl)-5-fluoropyridin-4-yl)oxy)-3-fluorophenyl)-4-(2,6-difluorobenzyl)-2,4-dihydro-3H-1,2,4-triazol-3-one] | < 100
O=c1n(-c2ccc(N3CCOc4ccccc43)cc2)nc(Cl)n1Cc1ccccc1 [Example 681, 4-benzyl-5-chloro-2-(4-(2,3-dihydro-4H-benzo[b][1,4]oxazin-4-yl)phenyl)-2,4-dihydro-3H-1,2,4-triazol-3-one] | 100 to 1000
N#CC1CC(n2cccc(Cc3ccc(-n4ncn(Cc5c(F)cccc5F)c4=O)cc3)c2=O)C1 (stereo not shown) [Example 682, 3-(3-(4-(4-(2,6-difluorobenzyl)-5-oxo-4,5-dihydro-1H-1,2,4-triazol-1-yl)benzyl)-2-oxopyridin-1(2H)-yl)cyclobutane-1-carbonitrile] | 100 to 1000
COc1ncccc1Cc1ccc(-n2ncn(Cc3c(F)cccc3F)c2=O)cc1 [Example 683, 4-(2,6-difluorobenzyl)-2-(4-((2-methoxypyridin-3-yl)methyl)phenyl)-2,4-dihydro-3H-1,2,4-triazol-3-one] | < 100
N#CC1CC(Oc2ncccc2Cc2ccc(-n3ncn(Cc4c(F)cccc4F)c3=O)cc2)C1 (stereo not shown) [Example 684, 3-((3-(4-(4-(2,6-difluorobenzyl)-5-oxo-4,5-dihydro-1H-1,2,4-triazol-1-yl)benzyl)pyridin-2-yl)oxy)cyclobutane-1-carbonitrile] | 100 to 1000
